# Assay: HPLC stability of compound in assay buffer
# Type: physicochemical
# Details: HPLC traces at t=0 hr. and t=5 hr. incubation; integrity confirmed by LC-MS
# Method: Supplementary Figure S13. HPLC traces of NOL 6 at t=0 hr. (red) and t=5 hr. (blue) incubation
# The compound integrity was further
# Supplementary Figure S14. MALDI-TOF spectra for demethylase activity of wild type KDM4C
# (A) and KDM4C-F187A mutant (B). In each case, topmost panel is assay without the cofactor
# 2OG (negative control), middle panel is assay with the cofactor (positive control) and the bottom
# mutant completely at 50 µM concentration (B). The demethylase activity of F187A mutant is
# (1 picture or pasted object on this page, not shown here)
compound,measurement,value
"CC(C)CC(NC(=O)C(=O)O)C(=O)O (stereo not shown) [compound 6, N-oxalyl leucine]",stability of the compound in assay buffer,confirm the stability

# From PMC11783601, “Analogue-Sensitive Inhibition of Histone Demethylases Uncovers Member-Specific Function in Ribosomal Protein Synthesis” (Journal of the American Chemical Society, 2025)
